How the values were obtained:
[1] = target: Nitric oxide synthase, inducible (Homo sapiens, UniProt P35228); test: Inhibition of iNOS in LPS treated human THP1 cell homogenate assessed as conversion of L-[2,3-3H]arginine to L-[2,3-3H]citrulline pre-incubated 1 hr before LPS challenge by whole cell assay; assay type: cell-based, THP-1
[2] = target: T1, Nitric oxide synthase 3 (Homo sapiens, UniProt P29474); test: Inhibition of eNOS in LPS treated human THP1 cell homogenate assessed as conversion of L-[2,3-3H]arginine to L-[2,3-3H]citrulline pre-incubated 1 hr before LPS challenge by whole cell assay; assay type: cell-based, THP-1
T1 sequence (P29474 whole entry): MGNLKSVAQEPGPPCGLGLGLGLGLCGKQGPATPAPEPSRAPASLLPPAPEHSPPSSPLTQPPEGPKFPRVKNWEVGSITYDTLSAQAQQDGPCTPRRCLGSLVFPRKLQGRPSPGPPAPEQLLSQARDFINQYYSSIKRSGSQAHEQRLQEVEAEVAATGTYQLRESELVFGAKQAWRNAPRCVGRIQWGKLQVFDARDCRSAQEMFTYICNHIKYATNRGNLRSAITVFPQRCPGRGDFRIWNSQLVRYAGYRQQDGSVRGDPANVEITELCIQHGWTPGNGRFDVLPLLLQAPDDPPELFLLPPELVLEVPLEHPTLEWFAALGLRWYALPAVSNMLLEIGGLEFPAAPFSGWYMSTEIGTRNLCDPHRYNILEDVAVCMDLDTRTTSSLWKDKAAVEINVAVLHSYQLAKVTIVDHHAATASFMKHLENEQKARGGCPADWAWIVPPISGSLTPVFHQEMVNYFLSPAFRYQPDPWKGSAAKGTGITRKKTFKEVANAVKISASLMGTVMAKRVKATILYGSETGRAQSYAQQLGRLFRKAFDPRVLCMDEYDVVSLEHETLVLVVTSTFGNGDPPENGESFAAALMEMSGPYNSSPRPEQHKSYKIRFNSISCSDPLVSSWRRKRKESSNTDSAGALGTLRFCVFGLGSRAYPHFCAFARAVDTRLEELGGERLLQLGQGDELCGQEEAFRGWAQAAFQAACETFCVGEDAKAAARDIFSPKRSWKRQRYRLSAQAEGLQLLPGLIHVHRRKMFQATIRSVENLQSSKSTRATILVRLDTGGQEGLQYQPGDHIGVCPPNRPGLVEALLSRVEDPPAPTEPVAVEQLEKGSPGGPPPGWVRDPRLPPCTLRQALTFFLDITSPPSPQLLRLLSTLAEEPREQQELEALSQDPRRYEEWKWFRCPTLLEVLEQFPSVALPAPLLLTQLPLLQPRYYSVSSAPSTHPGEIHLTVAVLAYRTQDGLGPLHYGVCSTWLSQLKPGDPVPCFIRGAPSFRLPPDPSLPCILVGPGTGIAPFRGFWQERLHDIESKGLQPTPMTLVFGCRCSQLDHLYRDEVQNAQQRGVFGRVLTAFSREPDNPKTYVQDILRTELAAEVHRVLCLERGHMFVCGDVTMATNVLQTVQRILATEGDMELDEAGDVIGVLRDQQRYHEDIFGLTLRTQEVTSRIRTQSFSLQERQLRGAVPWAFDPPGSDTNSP

[3] = species: Homo sapiens; test: Selectivity ratio of IC50 for human eNOS to IC50 for human iNOS

Chain of Nitric oxide synthase, inducible (P35228 whole entry): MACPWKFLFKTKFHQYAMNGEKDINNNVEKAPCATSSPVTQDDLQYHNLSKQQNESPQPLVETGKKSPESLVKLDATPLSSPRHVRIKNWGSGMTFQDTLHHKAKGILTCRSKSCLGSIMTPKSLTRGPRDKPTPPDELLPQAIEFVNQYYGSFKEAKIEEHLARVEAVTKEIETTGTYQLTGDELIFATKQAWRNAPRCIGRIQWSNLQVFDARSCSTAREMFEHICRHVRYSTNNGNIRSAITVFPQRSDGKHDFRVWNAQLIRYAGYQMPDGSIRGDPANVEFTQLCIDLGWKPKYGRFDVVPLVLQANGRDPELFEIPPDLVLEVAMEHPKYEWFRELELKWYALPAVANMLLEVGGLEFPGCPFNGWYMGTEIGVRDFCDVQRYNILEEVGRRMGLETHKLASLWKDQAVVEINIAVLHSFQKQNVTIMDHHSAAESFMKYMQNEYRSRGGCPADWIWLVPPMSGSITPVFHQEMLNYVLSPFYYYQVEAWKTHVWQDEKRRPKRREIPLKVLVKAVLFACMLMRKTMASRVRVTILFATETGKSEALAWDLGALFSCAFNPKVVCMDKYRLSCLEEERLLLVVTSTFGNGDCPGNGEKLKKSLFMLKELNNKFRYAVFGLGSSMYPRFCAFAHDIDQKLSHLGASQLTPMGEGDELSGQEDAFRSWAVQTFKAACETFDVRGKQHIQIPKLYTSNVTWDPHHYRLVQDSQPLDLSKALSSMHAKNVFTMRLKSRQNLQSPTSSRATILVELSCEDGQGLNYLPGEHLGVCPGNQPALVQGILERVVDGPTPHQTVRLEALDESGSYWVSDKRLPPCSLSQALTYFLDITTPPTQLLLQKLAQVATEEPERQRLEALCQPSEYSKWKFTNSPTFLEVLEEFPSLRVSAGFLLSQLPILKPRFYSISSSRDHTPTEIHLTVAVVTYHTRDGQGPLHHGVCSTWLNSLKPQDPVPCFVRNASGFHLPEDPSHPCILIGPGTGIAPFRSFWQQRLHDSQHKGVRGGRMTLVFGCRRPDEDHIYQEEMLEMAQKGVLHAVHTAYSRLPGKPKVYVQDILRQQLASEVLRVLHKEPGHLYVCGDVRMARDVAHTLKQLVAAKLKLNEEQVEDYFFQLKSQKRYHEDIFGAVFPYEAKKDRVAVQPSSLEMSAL

Compound | IC50 [1] [nM] | IC50 [2] [µM] | Ratio IC50 [3]
CC(=N)N[C@@H](C)c1ccccc1 | 450 | 300 | 666
CCC(NC(C)=N)c1ccccc1 (racemic) | 250 | 80 | 320
CC(=N)NCc1ccccc1 | 200 | 350 | 1750
CCOC(=O)N1CCC(NC(C)=N)CC1 | 250 | 90 | 360
CC(=N)NCc1cccc(CNS(=O)(=O)c2ccc(C)cc2)c1 | 500 | 300 | 600
CC(=N)NCc1cccc(CNCc2ccncc2)c1 | 350 | 20 | 57
